In US12458688B2, “Epitopes” (Scancell Limited, priority 2018, dated 2025):
Where no end group is shown, it is not given here. [ ]: non-standard residue; d: D form. hCit = NC(=O)NCCCC[C@H](N)C(=O)O

Experiments:
HLA-DR4 mice = experiment: Ex vivo IFNγ ELISpot after peptide immunisation, HLA-DR4 mice; format: in vivo, mouse; details: for IFNγ ELISpot response: 3 immunisations with CpG/MPLA, day 21
Experimental: (§1) C57BL/6 mice (Charles River, UK), HLA-DR4 mice (Model #4149, Taconic, USA), HLA-A2/DR1 (HHDII/DR1, Pasteur Institute), HLA-A2.1+/+HLA-DP4+/+hCD4+/+ (HLA-HHDII/DP4) transgenic mice (EM: 02221, European Mouse Mutant Archive) described in patent WO2013/017545 A1 (EMMA repository, France) were used, aged between 8 and 12 weeks. Peptides were dissolved in PBS to 1 mg/ml and then emulsified (a series of dilutions) with CpG ODN 1826 and MPLA 6 μg/mouse of each (Invivogen, UK). Peptides (25 μg/mouse) were injected subcutaneously at the base of the tail. Mice were immunised at days 1, 7 and 14 for peptide immunisation. Spleens were removed for analysis at day 21 unless stated otherwise.
(§2) ELISpot assays were performed using murine IFNγ, IL-17 and IL-10 capture and detection reagents according to the manufacturer's instructions (Mabtech, Sweden). In brief, anti-IFNγ, IL-17 and IL-10 specific antibodies were coated onto wells of 96-well Immobilin-P plate. Synthetic peptides (at various concentrations) and 5×10^5 per well splenocytes were added to wells of the plate in quadruplicate Tumour target cells were added where relevant at 5×10^4/well in triplicate and plates incubated for 40 hrs at 37° C. After incubation, captured IFNγ, IL-10 and IL-17 were detected by biotinylated anti-IFNγ, IL-10 and IL-17 antibodies and developed with a streptavidin alkaline phosphatase and chromogenic substrate. Lipopolysaccharide (LPS; 5 μg/ml) was used as a positive control. For MHC blocking studies, anti-CD4 blocking antibody (GK1.5) or anti-CD4 blocking antibody (RPA-T4) for HHDII/DP4 mice which express human CD4 and anti-CD8 blocking antibody (2.43) from Bioxcell were used at 20 μg/ml. Spots were analysed and counted using an automated plate reader (Cellular Technologies Ltd).
(§3) Screening was performed to identify potential homocitrullinated vimentin epitopes in mice. Mice were immunised with pools of homocitrullinated peptides. […] Each pool was administered as three immunisations containing 20 μg of each peptide and CpG/MPLA as an adjuvant on day 1, 8 and 15. On day 21 the mice were culled and the immune responses to each peptide within the immunising pool were assessed by ex vivo ELISpot. Given that different mouse strains have different MHC repertoires a number of strains were used for screening. Peptide responses were assessed in transgenic strains expressing human DR4 or HHDII/DR1 in a C57BL/6 background (see methods).

[1] = test system: PBMCs from cancer patients; experiment: CFSE proliferation assay, CD25-depleted PBMCs of cancer patients; format: cell-based, human; details: 10 μg/ml peptide, day 10, vs media control
Experimental: Peripheral blood samples were drawn into lithium heparin tubes (Becton Dickinson) and processed immediately following venepuncture. PBMCs were isolated by density gradient centrifugation using Ficoll-Hypaque. Proliferation and cultured ELISpot assay of PBMCs were performed immediately after isolation. For CD25 depletion PBMCs were processed as above and […] using anti-CD25 microbeads and MACS Cell Separation Columns (Miltenyi).
Briefly, a 50 μM stock solution in warm PBS was prepared from a master solution of 5 mM in dimethyl sulfoxide (DMSO). CFSE was rapidly added to PBMCs (5×10^6 cells/ml loading buffer (PBS with 5% v/v heat inactivated FCS)) to achieve a final concentration of 5 μM. PBMCs were incubated at room temperature in the dark for 5 mins after which non-cellular incorporated CFSE was removed by washing twice with excess (×10 v/v volumes) of loading buffer (300g ×10 mins). […]
On day 10, 500 μl of cells were removed from culture, washed in PBS and stained with 1:50 dilution of anti-CD4 (PE-Cy5, clone RPA-T4, ThermoFisher), anti-CD8 efluor 450, clone RPA-T8, ThermoFisher) and anti-CD134 (PE-Cy7, Clone REA621, Miltenyi). […] Stained samples were analysed immediately on a MACSQuant 10 flow cytometer equipped with MACSQuant software version 2.8.168.16380. […]

HLA-HHDII/DR1 mice = experiment: Ex vivo IFNγ ELISpot after peptide immunisation, HHDII/DR1 mice; format: in vivo, mouse; details: for IFNγ ELISpot response: 3 immunisations with CpG/MPLA, day 21
Experimental: as §1, §2
as §3, with “methods). […]” for “methods).”
The five selected homocitrullinated Cyk8 peptides were also screened in HHDII/DR1 transgenic mice. […] Response to Cyk8 112Hcit peptide in the HHDII/DR1 mice was lost in the presence of CD8 blocking antibody but less effect of the CD4 blocking antibody was seen (FIG. 12b). […] Responses to homocitrullinated Cyk8 peptides show both CD4 and CD8 mediated responses.

B16F1 HHDII/DR1 tumours = experiment: Tumour therapy, B16F1 HHDII/DR1 tumour in HHDII/DR1 mice; format: in vivo, mouse; details: peptide with CpG/MPLA days 4, 11, 18
Description: To determine if the epitopes that stimulate T cell responses are presented on MHC-II within the tumour environment, our homocitrullinated peptides were checked for tumour therapy in B16 tumour models. Mice were implanted with tumour cells on day 1 and then immunised with peptides and CpG/MPLA on days 4, 11 and 18.
HHDII/DR1 (FIG. 19a) or DR4 (FIG. 19b) transgenic mice were challenged with B16F1 HHDII/DR1 or B16F1 DR4 tumours respectively prior to immunisation with vimentin 116-135Hcit peptide and tumour growth and survival were monitored.
HHDII/DR1 mice were implanted with B16HHDII/DR1 tumour cells on day 1 and then immunised with Cyk8 371Hcit, 112hcit or both peptides and CpG/MPLA on days 4, 11 and 18.

IGGVILFHETLYQ-hcit-ADDGRP (IGGVILFHETLYQ[hCit]ADDGRP) [Aldolase A 74-93 Hcit]
IFNγ ELISpot response (HLA-DR4 mice): No responses were seen
CD4 T cell proliferation [1]: significant proliferative responses

LEQQN-hcit-MLET-hcit-WSLLQQQ-hcit-T (LEQQN[hCit]MLET[hCit]WSLLQQQ[hCit]T) [Cyk8 112-131 Hcit]
IFNγ response in presence of CD4 blocking antibody (HLA-HHDII/DR1 mice): less effect
IFNγ response in presence of CD8 blocking antibody (HLA-HHDII/DR1 mice): lost
cross reactivity of Hcit response to wt peptide (HLA-HHDII/DR1 mice): minimal cross reactivity
IFNγ ELISpot response (HLA-HHDII/DR1 mice): Significant responses
anti-tumour response / survival vs control (B16F1 HHDII/DR1 tumours): Significant prevention of tumour growth

LREYQELMNV-hcit-LALDIEI (LREYQELMNV[hCit]LALDIEI) [Cyk8 371-388 Hcit]
IFNγ response in presence of CD4 blocking antibody (HLA-HHDII/DR1 mice): lost
IFNγ response in presence of CD8 blocking antibody (HLA-HHDII/DR1 mice): not with the CD8 blocking antibody
cross reactivity of Hcit response to wt peptide (HLA-HHDII/DR1 mice): minimal cross reactivity
IFNγ ELISpot response (HLA-HHDII/DR1 mice): Significant responses
anti-tumour response / survival vs control (B16F1 HHDII/DR1 tumours): Significant prevention of tumour growth

NYID-Hcit-VRFLEQQN-Hcit-ILLAEL (NYID[hCit]VRFLEQQN[hCit]ILLAEL) [Vimentin 116-135 Hcit]
IFNγ response in presence of CD4 blocking antibody (HLA-DR4 mice): significantly decreased
IFNγ response in presence of CD8 blocking antibody (HLA-DR4 mice): not in the presence of the CD8 blocking antibody
cross reactivity of Hcit response to wt peptide (HLA-DR4 mice): no cross reactivity
IFNγ ELISpot response (HLA-DR4 mice): significant response
IFNγ response in presence of CD4 blocking antibody (HLA-HHDII/DR1 mice): significantly decreased
IFNγ response in presence of CD8 blocking antibody (HLA-HHDII/DR1 mice): not in the presence of the CD8 blocking antibody
cross reactivity of Hcit response to wt peptide (HLA-HHDII/DR1 mice): no cross reactivity
IFNγ ELISpot response (HLA-HHDII/DR1 mice): significant response
CD4 T cell proliferation [1]: just short of significance
survival (B16F1 HHDII/DR1 tumours): 50%

hcit-DGADFA-hcit-WRCVL-hcit-IGEH ([hCit]DGADFA[hCit]WRCVL[hCit]IGEH) [Aldolase A 140-157 Hcit]
IFNγ ELISpot response (HLA-DR4 mice): No responses were seen
cross reactivity of Hcit response to wt peptide (HLA-HHDII/DR1 mice): significantly higher
IFNγ ELISpot response (HLA-HHDII/DR1 mice): stimulated responses
anti-tumour response / survival vs control (B16F1 HHDII/DR1 tumours): significant increase in survival
